Measured values reported in ChEMBL document CHEMBL4393717, “Development of novel human lactate dehydrogenase A inhibitors: High-throughput screening, synthesis, and biological evaluations” (Eur J Med Chem, 2019).
Calls of active or inactive are those of the source. The rule behind the calls is not given here.

Assays:
[1] = target: T1, L-lactate dehydrogenase A chain (Homo sapiens, UniProt P00338); assay: Inhibition of recombinant human full-length N-terminal His-tagged LDHA (1 to 332 residues) expressed in Escherichia coli using sodium pyruvate as substrate incubated for 10 mins
[2] = test system: MIA PaCa-2; assay: Antiproliferative activity against human MIAPaCa2 cells assessed as reduction in cell viability incubated for 72 hrs by MTT assay; type: functional, cell-based; details: MIA PaCa-2, 72 h
[3] = test system: A549; assay: Antiproliferative activity against human A549 cells assessed as reduction in cell viability at incubated for 72 hrs by MTT assay; type: functional, cell-based; details: A549, 72 h
[4] = test system: MIA PaCa-2; assay: Inhibition of colony formation in human MIAPaCa2 cells at 1 uM treated for 3 days and supplemented with fresh medium with out compound every 3 days measured after 15 days by crystal violet staining based assay; type: functional
[5] = test system: MIA PaCa-2; assay: Inhibition of colony formation in human MIAPaCa2 cells at 0.5 uM treated for 3 days and supplemented with fresh medium with out compound every 3 days measured after 15 days by crystal violet staining based assay; type: functional, cell-based
[6] = test system: MIA PaCa-2; assay: Induction of apoptosis in human MIAPaCa2 cells assessed as viable cells at 1 uM incubated for 12 hrs by annexin V and propidium iodide staining based flow cytometry analysis (reference value: 94.85 %); type: functional; details: MIA PaCa-2, 12 h, read-out: Activity
[7] = test system: MIA PaCa-2; assay: Induction of apoptosis in human MIAPaCa2 cells assessed as early apoptotic cells at 1 uM incubated for 12 hrs by annexin V and propidium iodide staining based flow cytometry analysis (reference value: 0.40 %); type: functional
[8] = test system: MIA PaCa-2; assay: Induction of apoptosis in human MIAPaCa2 cells assessed as late apoptotic cells at 1 uM incubated for 12 hrs by annexin V and propidium iodide staining based flow cytometry analysis (reference value: 3.21 %); type: functional
[9] = test system: MIA PaCa-2; assay: Induction of apoptosis in human MIAPaCa2 cells assessed as necrotic cells at 1 uM incubated for 12 hrs by annexin V and propidium iodide staining based flow cytometry analysis (reference value: 1.54 %); type: functional
[10] = test system: MIA PaCa-2; assay: Induction of apoptosis in human MIAPaCa2 cells assessed as viable cells at 5 uM incubated for 12 hrs by annexin V and propidium iodide staining based flow cytometry analysis (reference value: 94.85 %); type: functional; details: MIA PaCa-2, 12 h, read-out: Activity
[11] = test system: MIA PaCa-2; assay: Induction of apoptosis in human MIAPaCa2 cells assessed as early apoptotic cells at 5 uM incubated for 12 hrs by annexin V and propidium iodide staining based flow cytometry analysis (reference value: 0.40 %); type: functional
[12] = test system: MIA PaCa-2; assay: Induction of apoptosis in human MIAPaCa2 cells assessed as late apoptotic cells at 5 uM incubated for 12 hrs by annexin V and propidium iodide staining based flow cytometry analysis (reference value: 3.21 %); type: functional
[13] = test system: MIA PaCa-2; assay: Induction of apoptosis in human MIAPaCa2 cells assessed as necrotic cells at 5 uM incubated for 12 hrs by annexin V and propidium iodide staining based flow cytometry analysis (reference value: 1.54 %); type: functional
[14] = test system: MIA PaCa-2; assay: Induction of apoptosis in human MIAPaCa2 cells assessed as viable cells at 10 uM incubated for 12 hrs by annexin V and propidium iodide staining based flow cytometry analysis (reference value: 94.85 %); type: functional; details: MIA PaCa-2, 12 h, read-out: Activity
[15] = test system: MIA PaCa-2; assay: Induction of apoptosis in human MIAPaCa2 cells assessed as early apoptotic cells at 10 uM incubated for 12 hrs by annexin V and propidium iodide staining based flow cytometry analysis (reference value: 0.40 %); type: functional
[16] = test system: MIA PaCa-2; assay: Induction of apoptosis in human MIAPaCa2 cells assessed as late apoptotic cells at 10 uM incubated for 12 hrs by annexin V and propidium iodide staining based flow cytometry analysis (reference value: 3.21 %); type: functional
[17] = test system: MIA PaCa-2; assay: Induction of apoptosis in human MIAPaCa2 cells assessed as necrotic cells at 10 uM incubated for 12 hrs by annexin V and propidium iodide staining based flow cytometry analysis (reference value: 1.54 %); type: functional
[18] = test system: MIA PaCa-2; assay: Induction of apoptosis in human MIAPaCa2 cells incubated for 12 hrs by Annexin V-FITC/propidium iodide staining based flow cytometry; type: functional, cell-based
[19] = test system: MIA PaCa-2; assay: Cell cycle arrest in human MIAPaCa2 cells assessed as accumulation at G1 phase at 1 uM incubated for 24 hrs by propidium iodide staining based flow cytometry (reference value: 56.01%); type: functional
[20] = test system: MIA PaCa-2; assay: Cell cycle arrest in human MIAPaCa2 cells assessed as accumulation at S phase at 1 uM incubated for 24 hrs by propidium iodide staining based flow cytometry (reference value: 12.99%); type: functional
[21] = test system: MIA PaCa-2; assay: Cell cycle arrest in human MIAPaCa2 cells assessed as accumulation at G2 phase at 1 uM incubated for 24 hrs by propidium iodide staining based flow cytometry (reference value: 31.00%); type: functional
[22] = test system: MIA PaCa-2; assay: Cell cycle arrest in human MIAPaCa2 cells assessed as accumulation at G1 phase at 5 uM incubated for 24 hrs by propidium iodide staining based flow cytometry (reference value: 56.01%); type: functional
[23] = test system: MIA PaCa-2; assay: Cell cycle arrest in human MIAPaCa2 cells assessed as accumulation at S phase at 5 uM incubated for 24 hrs by propidium iodide staining based flow cytometry (reference value: 12.99%); type: functional
[24] = test system: MIA PaCa-2; assay: Cell cycle arrest in human MIAPaCa2 cells assessed as accumulation at G2 phase at 5 uM incubated for 24 hrs by propidium iodide staining based flow cytometry (reference value: 31.00%); type: functional
[25] = test system: MIA PaCa-2; assay: Cell cycle arrest in human MIAPaCa2 cells assessed as accumulation at G1 phase at 10 uM incubated for 24 hrs by propidium iodide staining based flow cytometry (reference value: 56.01%); type: functional
[26] = test system: MIA PaCa-2; assay: Cell cycle arrest in human MIAPaCa2 cells assessed as accumulation at S phase at 10 uM incubated for 24 hrs by propidium iodide staining based flow cytometry (reference value: 12.99%); type: functional
[27] = test system: MIA PaCa-2; assay: Cell cycle arrest in human MIAPaCa2 cells assessed as accumulation at G2 phase at 10 uM incubated for 24 hrs by propidium iodide staining based flow cytometry (reference value: 31.00%); type: functional
[28] = test system: MIA PaCa-2; assay: Cell cycle arrest in human MIAPaCa2 cells assessed as increase in accumulation at G2 phase incubated for 24 hrs by propidium iodide staining based flow cytometry; type: functional
[29] = target: T1, L-lactate dehydrogenase A chain; assay: Inhibition of LDHA in human MIAPaCa2 cells assessed as switch of pyruvate metabolism from lactate production to oxidative phosphorylation by measuring reduction in lactate formation at 1 to 10 uM incubated for 4 hrs; type: cell-based
[30] = target: T1, L-lactate dehydrogenase A chain; assay: Inhibition of LDHA in human MIAPaCa2 cells assessed as switch of pyruvate metabolism from lactate production to oxidative phosphorylation by measuring decrease in extracellular acidification rate at 1 to 10 uM incubated for 4 hrs; type: cell-based
[31] = target: T1, L-lactate dehydrogenase A chain; assay: Inhibition of LDHA in human MIAPaCa2 cells assessed as switch of pyruvate metabolism from lactate production to oxidative phosphorylation by measuring increase in oxygen consumption rate at 1 to 10 uM incubated for 4 hrs; type: cell-based
[32] = test system: MIA PaCa-2; assay: Antitumor activity against human MIAPaCa2 cells xenografted in nude mouse assessed as reduction in tumor growth at 10 mg/kg administered once daily for 21 days measured twice a week; type: functional, organism-based
[33] = test system: MIA PaCa-2; assay: Antitumor activity against human MIAPaCa2 cells xenografted in mouse assessed as reduction in tumor weight at 10 mg/kg administered once daily for 21 days measured twice a week; type: functional, organism-based
[34] = Toxicity in nude mouse xenografted with human MIAPaCa2 cells assessed as reduction in body weight at 10 mg/kg administered once daily for 21 days measured twice a week; type: organism-based; details: in vivo, 504 h
[35] = test system: MIA PaCa-2; assay: Inhibition of colony formation in human MIAPaCa2 cells treated for 3 days and supplemented with fresh medium with out compound every 3 days measured after 15 days by crystal violet staining based assay; type: functional, cell-based

- EC50 [1]: 90 nM
- IC50 [2]: 2100 nM
- IC50 [3]: 7800 nM
- inhibition [29]: Active
- inhibition [30]: Active
- inhibition [31]: Active
Compound: O=C(c1ccco1)N1CCN(Cc2cc(=O)c(OCc3ccccc3F)co2)CC1
- inhibition at 1 µM [4]: 100%
- inhibition [5]: Active
- viability at 1 µM [6]: 89.8%
- Activity [7]: 1.14%
- Activity [8]: 5.79%
- Activity [9]: 3.23%
- viability at 5 µM [10]: 66.6%
- Activity [11]: 3.47%
- Activity [12]: 19.86%
- Activity [13]: 10.1%
- viability at 10 µM [14]: 55.1%
- Activity [15]: 3.79%
- Activity [16]: 27.68%
- Activity [17]: 13.38%
- Activity [18]: Dose-dependent effect
- Activity [19]: 49.19%
- Activity [20]: 12.29%
- Activity [21]: 38.52%
- Activity [22]: 44.51%
- Activity [23]: 13.37%
- Activity [24]: 42.12%
- Activity [25]: 36.21%
- Activity [26]: 3.8%
- Activity [27]: 59.99%
- Activity [28]: Dose-dependent effect
- Activity [32]: Active
- Activity [33]: Active
- Activity [34]: Non-Toxic
- inhibition [35]: Dose-dependent effect
